Each compound was assayed against T1, human V2 vasopressin receptor subtype (Homo sapiens, UniProt P30518) (assay: Vasopressin binding in CHO cell membranes expressing human vasopressin V2 subtype receptors ([3H]arginine vasopressin)). Details: 100 nM, value without parentheses.
T1 construct: host or cells: CHO cells, stably transfected (pZeoSV vector); membranes
T1 sequence (P30518 whole entry): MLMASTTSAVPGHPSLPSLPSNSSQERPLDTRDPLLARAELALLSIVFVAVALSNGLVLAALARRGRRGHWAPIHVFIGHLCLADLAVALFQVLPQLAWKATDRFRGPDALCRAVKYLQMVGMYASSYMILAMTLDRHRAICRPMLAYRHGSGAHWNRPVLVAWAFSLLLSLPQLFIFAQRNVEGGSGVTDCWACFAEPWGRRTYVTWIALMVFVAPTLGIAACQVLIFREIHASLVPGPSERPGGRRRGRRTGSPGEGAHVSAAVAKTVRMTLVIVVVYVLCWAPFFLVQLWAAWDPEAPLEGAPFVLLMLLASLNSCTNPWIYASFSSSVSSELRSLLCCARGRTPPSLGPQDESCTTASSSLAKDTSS
Source text: Vasopressin Binding in Chinese Hamster Ovary Cell Membranes Expressing Human Vasopressin V2 Subtype Receptors
Chinese Hamster Ovary (CHO) cells stably transfected with the human V2 subtype receptors were obtained from M. Thibonnier, Case Western Reserve University School of Medicine, Cleveland, Ohio.
A. Passaging and Amplification of Cells:
CHO cells transfected with the human vasopressin V2 subtype receptors obtained from M. Thibonnier (pZeoSV vector) are allowed to grow to confluency (approx. >90%) in T-150 flasks under sterile conditions, in a cell culture medium of F-12 Nutrient Mixture (HAM) with L-glutamine (Gibco Cat. #11765-054) containing 15 mM HEPES (Gibco Cat. #15630-080), 1% antibiotic/antimycotic (add 5 mL 100×, Gibco Cat. #15240-062 per 500 mL F-12), 250 μg/mL Zeocin (add 1.25 mL of 100 mg/mL Invitrogen R-250-01 per 500 mL F-12) and 10% Fetal Bovine Serum (Qualified, heat inactivated, Gibco Cat. #16140-063). The medium is removed by aspiration and the cells washed with 10 mL of Hank's Balanced Salt solution (Gibco Cat. #14175-095). The salt solution is removed by aspiration and the cells trypsinized with 5 mL of trypsin-EDTA (0.05% trypsin, 0.53 mM EDTA-4Na, Gibco Cat. #25300-070) for 1 min. The trypsin is removed by aspiration and the cells dislodged by tapping. Cell Culture medium (e.g. 30 mL for 1:30 split) is immediately added and mixed well to inactivate trypsin. 1 mL of detached cells is added to new culture flasks containing fresh Cell Culture medium (e.g. into 25 mL per T-150 flask), and mixed gently. The cells are incubated at 37° C. in 5% CO2. The medium is changed at 3 to 4 day interval (or as appropriate). The cells grow to confluency (approx. >75%-95%) within 7-8 days. All steps are done under sterile conditions.
The cells are washed twice gently with Hank's Balanced Salt solution (e.g. use 10 mL per T-150 flask). The excess solution is removed and the cells bathed for 15-30 min. in an enzyme-free Cell Dissociation Buffer (e.g. use 8 mL Hank's Based, Gibco Cat. #13150-016 per T-150 flask) until cells are loosened. The contents are transferred to centrifuge tubes (50 mL size) kept in ice bath. All subsequent steps are done at 4° C. The tubes are centrifuged at 300×g for 15 min (1380 rpm on SORVAL, Model RT6000D, using rotor for 50 mL tubes). The supernatant is discarded and the cells suspended in homogeneizing buffer(10 mM Tris-HCl containing 0.25 M sucrose and 1 mM EDTA, pH 7.4) ensuring that the volume of the buffer is about ten times the volume of the cell pellet. The cells are pooled into a centrifuge tube (50 mL) and homogenized with Polytron at setting 6 for 10 sec. The homogenate is transferred into a Potter-Elvjehm homogeneizer and homogenized with 3 strokes. The homogenate is centrifuged at 1500×g for 60 min at 4° C. (3100 rpm using SORVAL, model RT6000D, using rotor for 50 mL tubes). The pellet is discarded. The supernatant is centrifuged at 100,000×g for 60 min. at 4° C. (Beckman L8-80M ultracentrifuge; spin at 37,500 rpm with rotor type 70 Ti for 50 mL tubes; 38,000 rpm with type 80Ti for 15 mL tubes; or 35,800 rpm with rotor type 45Ti). The supernantant is discarded and the pellet suspended in 3 to 4 mL of Tris buffer (50 mM TRIS-HCl, pH 7.4). The protein content is estimated by the Bradford or Lowry method. The volume of the membrane suspension is adjusted with the membrane buffer (50 mM Tris-HCl containing 0.1% BSA and 0.1 mM PMSF) to give 3.0 mg/mL (or as appropriate) of protein. The membranes are aliquoted and stored at −70° C.
C. Radioligand Binding Assay:
In wells of a 96-well format microtiter plate, is added 90, 110 or 130 μL (to make up a final volume of 200 μL) of assay buffer containing 50 mM of Tris-HCl (pH 7.4), […], 1 mg % aprotinin, 1 mg % leupeptin, 2 mg % 1,10-phenanthroline, 10 mg % trypsin inhibitor, and 0.1 mM PMSF. The inhibitors are added on the day of the experiment. […]
For `COc1cc(C2=CCCCC2)c(Cl)cc1C(=O)N1Cc2ccc(C(=O)O)n2Cc2ccccc21` [Example 1G, 10-(5-Chloro-4-cyclohex-1-en-1-yl-2-methoxybenzoyl)-10,11-dihydro-5H-pyrrolo[2,1-c][1,4]benzodiazepine-3-carboxylic acid], the inhibition at 0.1 µM was 4%.
For `Cc1cc(C(=O)N2Cc3ccc(C(=O)C(Cl)(Cl)Cl)n3Cc3ccccc32)ccc1C1=CCCCC1` [Example 5D, 2,2,2-Trichloro-1-[10-(4-cyclohex-1-en-1-yl-3-methyl-benzoyl)-10,11-dihydro-5H-pyrrolo[2,1-c][1,4]benzodiazepin-3-yl]-methanone], the “V2 % inhibition @ 100 nM” value was 1%.
Compound `Cc1cc(C(=O)N2Cc3ccc(C(=O)O)n3Cc3ccccc32)ccc1C1=CCCCC1` [Example 5E, 10-(4-Cyclohex-1-en-1-yl-3-methyl-benzoyl)-10,11-dihydro-5H-pyrrolo[2,1-c][1,4]benzodiazepine-3-carboxylic acid] has an inhibition at 0.1 µM of 15%.
Work on `Cc1cc(C(=O)N2Cc3ccc(C(=O)N(C)C[C@@H]4OC(=O)O[C@H]4[C@H](O)[C@H]4COC(=O)O4)n3Cc3ccccc32)ccc1C1=CCCCC1` [Example 7, 10-(4-Cyclohex-1-en-1-yl-3-methylbenzoyl)-N-[((4S,5S)-5-{(R)-hydroxy[(4R)-2-oxo-1,3-dioxolan-4-yl]methyl}-2-oxo-1,3-dioxolan-4-yl)methyl]-N-methyl-10,11-dihydro-5H-pyrrolo[2,1-c][1,4]benzodiazepine-3-carboxamide] yielded an inhibition at 0.1 µM of 14%.
Work on `CCOC(=O)[C@H](Cc1ccc(O)cc1)NC(=O)c1ccc2n1Cc1ccccc1N(C(=O)c1ccc(C3=CCCCC3)c(C)c1)C2` [Example 9, (2S)-2-{[10-(4-Cyclohex-1-en-1-yl-3-methyl-benzoyl)-10,11-dihydro-5H-pyrrolo[2,1-c][1,4]benzodiazepine-3-carbonyl]-amino}-3-(4-hydroxy-phenyl)-propionic acid ethyl ester] yielded an inhibition at 0.1 µM of 11%.
With `Cc1cc(C(=O)N2Cc3ccc(C(=O)N[C@@H](Cc4ccc(O)cc4)C(=O)O)n3Cc3ccccc32)ccc1C1=CCCCC1` [Example 10] the “V2 % inhibition @ 100 nM” value was 15%.
For `COC(=O)[C@H](CO)NC(=O)c1ccc2n1Cc1ccccc1N(C(=O)c1ccc(C3=CCCCC3)c(C)c1)C2` [Example 11, (2S)-2-{[10-(4-Cyclohex-1-en-1-yl-3-methyl-benzoyl)-10,11-dihydro-5H-pyrrolo[2,1-c][1,4]benzodiazepine-3-carbonyl]-amino}-3-hydroxy-propionic acid methyl ester], the inhibition at 0.1 µM was 10%.
`COC(=O)[C@@H](CO)NC(=O)c1ccc2n1Cc1ccccc1N(C(=O)c1ccc(C3=CCCCC3)c(C)c1)C2` [Example 12, (2R)-2-{[10-(4-Cyclohex-1-en-1-yl-3-methyl-benzoyl)-10,11-dihydro-5H-pyrrolo[2,1-c][1,4]benzodiazepine-3-carbonyl]-amino}-3-hydroxy-propionic acid methyl ester] showed an inhibition at 0.1 µM of 9%.
In the case of `Cc1cc(C(=O)N2Cc3ccc(C(=O)N[C@@H](CO)C(=O)O)n3Cc3ccccc32)ccc1C1=CCCCC1` [Example 13, (2S)-2-{[10-(4-Cyclohex-1-en-1-yl-3-methyl-benzoyl)-10,11-dihydro-5H-pyrrolo[2,1-c][1,4]benzodiazepine-3-carbonyl]-amino}-3-hydroxy-propionic acid], the inhibition at 0.1 µM is reported as 9%.
Work on `Cc1cc(C(=O)N2Cc3ccc(C(=O)N[C@H](CO)C(=O)O)n3Cc3ccccc32)ccc1C1=CCCCC1` [Example 14, (2R)-2-{[10-(4-Cyclohex-1-en-1-yl-3-methyl-benzoyl)-10,11-dihydro-5H-pyrrolo[2,1-c][1,4]benzodiazepine-3-carbonyl]-amino}-3-hydroxy-propionic acid] yielded an inhibition at 0.1 µM of 11%.
`Cc1cc(C(=O)N2Cc3ccc(C(=O)O)n3Cc3ccccc32)ccc1C1=CCCc2ccccc21` [Example 15B, 10-[4-(3,4-Dihydro-naphthalen-1-yl)-3-methyl-benzoyl]-10,11-dihydro-5H-pyrrolo[2,1-c][1,4]benzodiazepine-3-carboxylic acid] gave an inhibition at 0.1 µM of 40%.

Same assay, conditions: value in parentheses
`COc1cc(C2=CCCCC2)c(Cl)cc1C(=O)N1Cc2ccc(C(=O)N(C)C[C@H](O)[C@@H](O)[C@H](O)[C@H](O)CO)n2Cc2ccccc21` [Example 1, 1-[[[10-[5-Chloro-4-(1-cyclohex-1-en-1-yl)-2-methoxybenzoyl]-10,11-dihydro-5H-pyrrolo[2,1-c][1,4]benzodiazepin-3-yl]carbonyl]methylamino]-1-deoxy-D-glucitol] gave an IC50 of 1.56 µM.
`COC[C@@H](OC)[C@@H](OC)[C@H](OC)[C@H](CN(C)C(=O)c1ccc2n1Cc1ccccc1N(C(=O)c1cc(Cl)c(C3=CCCCC3)cc1OC)C2)OC` [Example 2, 10-(5-Chloro-4-cyclohex-1-en-1-yl-2-methoxybenzoyl)-N-methyl-N-[(2S,3R,4R,5R)-2,3,4,5,6-pentamethoxyhexyl]-10,11-dihydro-5H-pyrrolo[2,1-c][1,4]benzodiazepine-3-carboxamide] was tested, and the IC50 was 4.59 µM.
For `COc1cc(C2=CCCCC2)c(Cl)cc1C(=O)N1Cc2ccc(C(=O)N(C)C[C@@H]3OC(=O)O[C@H]3[C@H](O)[C@H]3COC(=O)O3)n2Cc2ccccc21` [Example 3, 10-(5-Chloro-4-cyclohex-1-en-1-yl-2-methoxybenzoyl)-N-[((4S,5S)-5-{(R)-hydroxy[(4R)-2-oxo-1,3-dioxolan-4-yl]methyl}-2-oxo-1,3-dioxolan-4-yl)methyl]-N-methyl-10,11-dihydro-5H-pyrrolo[2,1-c][1,4]benzodiazepine-3-carboxamide], the IC50 was 2.62 µM.
`COc1cc(C2=CCCCC2)c(Cl)cc1C(=O)N1Cc2ccc(C(=O)N(C)CC(O)CO)n2Cc2ccccc21` (stereo not shown) [Example 4, 10-(5-Chloro-4-cyclohex-1-en-1-yl-2-methoxybenzoyl)-N-(2,3-dihydroxypropyl)-N-methyl-10,11-dihydro-5H-pyrrolo[2,1-c][1,4]benzodiazepine-3-carboxamide] showed an IC50 of 1.49 µM.
Work on `Cc1cc(C(=O)N2Cc3ccc(C(=O)N(C)C[C@H](O)[C@@H](O)[C@H](O)[C@H](O)CO)n3Cc3ccccc32)ccc1C1=CCCCC1` [Example 5] yielded an IC50 of 2.11 µM.
In the case of `Cc1cc(C(=O)N2Cc3ccc(C(=O)N(C)C[C@H](O)[C@H]4OC(=O)O[C@@H]4[C@H](O)CO)n3Cc3ccccc32)ccc1C1=CCCCC1` [Example 6, 10-(4-Cyclohex-1-en-1-yl-3-methylbenzoyl)-N-((2S)-2-{(4R,5R)-5-[(1R)-1,2-dihydroxyethyl]-2-oxo-1,3-dioxolan-4-yl}-2-hydroxyethyl)-N-methyl-10,11-dihydro-5H-pyrrolo[2,1-c][1,4]benzodiazepine-3-carboxamide], the IC50 is reported as 0.558 µM.
With `COC[C@@H](OC)[C@@H](OC)[C@H](OC)[C@H](CN(C)C(=O)c1ccc2n1Cc1ccccc1N(C(=O)c1ccc(C3=CCCCC3)c(C)c1)C2)OC` [Example 8, 10-(4-Cyclohex-1-en-1-yl-3-methylbenzoyl)-N-methyl-N-[(2S,3R,4R,5R)-2,3,4,5,6-pentamethoxyhexyl]-10,11-dihydro-5H-pyrrolo[2,1-c][1,4]benzodiazepine-3-carboxamide] the IC50 was > 3 µM.
`Cc1cc(C(=O)N2Cc3ccc(C(=O)N(C)C[C@H](O)[C@@H](O)[C@H](O)[C@H](O)CO)n3Cc3ccccc32)ccc1C1=CCCc2ccccc21` [Example 15] was tested, and the IC50 was 0.121 µM.
